Assay results published in patent publication US7935359B2, “Use of L 2-thiohistidine or one of its derivatives as a depigmenting agent in cosmetics” (LVMH Recherche, priority 2006, dated 2011).

Tested on: melanocytes of separated mammary epidermis
Experiment: Depigmenting activity on separated epidermis incubated with L-DOPA/active principle solution, optical microscopy and counting of melanin grains
Type: cell-based, human
Settings: for depigmenting activity: separated epidermis, L-DOPA; for grains of melanin counted, Mean: mean of 3 tests
Procedure: In this Example a quantitative comparative test is carried out on a separated epidermis in order to show the depigmenting activity of L-2-thiohistidine compared with various depigmenting agents known in the prior art, especially kojic acid or ergothioneine, and also compared with a control sample comprising DOPA oxidase.
The procedure of this test is similar to that described in Example II of the LVMH RECHERCHE document FR-A-2,867,384 published on 16 Sep. 2005, to which those skilled in the art may usefully refer and which is incorporated by reference.
Frozen mammary epidermis originating from plastic surgery on a person, reference P148AB39, are separated by incubation in 2N NaBr for 1 h 45 min at 37° C. They were fixed in a formalized fixative, buffered, rinsed and brought into contact with a volume/volume mixture of L-DOPA/active principle solution. After incubation, they were rinsed and mounted between slides and cover slips with mounting medium.
The epidermis were observed by optical microscopy with a magnification of 10.
The depigmenting activity which can be seen in FIGS. 1 to 5 was quantified statistically by counting the grains of melanin over a series of 3 tests. The values are shown in the Table below, in which the values obtained for the Student test are specified for ergothioneine versus L-2-thiohistidine and for kojic acid versus L-2-thiohistidine at the same concentration. The Student test is said to be significant if the value obtained is less than 0.05. Conclusions

SMILES | grains of melanin counted, Test 1 (50 μg) | grains of melanin counted, Test 2 (50 μg) | grains of melanin counted, Test 3 (50 μg) | depigmenting activity (50 μg/ml) | grains of melanin counted, Mean (50 μg) | grains of melanin counted, Test 1 (150 μg) | grains of melanin counted, Test 2 (150 μg) | grains of melanin counted, Test 3 (150 μg) | depigmenting activity compared with reference agents (in words) (150 μg/ml, versus kojic acid) | depigmenting activity (150 μg/ml) | grains of melanin counted, Mean (150 μg) | depigmenting activity compared with reference agents (in words) (comparable concentration, versus ergothioneine)
NC(Cc1c[nH]c(=S)[nH]1)C(=O)O [L-2-thiohistidine, alpha-amino-2,3-dihydro-2-thioxo-1H-imidazole-4-propanoic acid] | 162 | 178 | 176 | 60% | 172 | 102 | 115 | 116 | very good depigmenting activity similar to that of the previously known kojic acid | 75% | 111 | better depigmenting activity than ergothioneine
C[N+](C)(C)[C@@H](Cc1c[nH]c(=S)[nH]1)C(=O)[O-] [ergothioneine, reference compound] | 194 | 210 | 190 | ~45% | 198 | – | – | – | – | – | – | –
O=c1cc(CO)occ1O [kojic acid, reference compound] | – | – | – | – | – | 124 | 137 | 138 | – | ~75% | 133 | –
